Data as given in patent US4314061A, “Certain 3,6-bis-(heteroaminoalkoxy) acridines” (priority 1980, dated 1982).

How the values were obtained:
[1] = system: natural killer lymphocytes (NK cells); experiment: Stimulation of NK-cell activity in normal mice
normal mouse bone marrow = experiment: Effect on normal mouse bone marrow; assay type: in vivo, C57 BL6 male mice; conditions: 24 hours after treatment; test compound oral, Cytoxan intraperitoneal
Description: The effect of drugs on normal mouse bone marrow is evaluated by determining total cell counts of femurs and by the ability of surviving cells to form colonies in semi-solid medium. The test compound is administered orally and the reference drug Cytoxan is administered intraperitoneally to C57 BL6 male mice. One femur from each of three mice per dose level is assayed 24 hours after treatment. Counts of nucleated cells are performed on pooled marrow suspensions and the clonogenic assay is performed by plating 50,000 cells in one ml. of culture medium in each of four culture dishes. The medium to support bone marrow progenitor cell growth is McCoy's medium supplemented with 0.9% methocel, 1.8% human serum albumin, 10% bovine fetal serum and 10% "conditioned" L-cell medium. Cultures are incubated at 37° C. in a humidified atmosphere and colonies are counted at seven days.

circulating interferon = experiment: Induction of circulating interferon in mice; assay type: in vivo, BDF1 mice; conditions: 300 mg/kg single oral
B16 melanoma = experiment: Surgical-adjuvant antitumor activity against B16 melanoma implanted subcutaneously in footpads; assay type: in vivo, BDF1 mice; conditions: for Average % of tumor weight inhibition / Average tumor weight: Day +21; for No. Survivors/No. Treated: at +90 days
Description: BDF1 mice were inoculated subcutaneously in the right hind footpad with 5×10^5 viable B16 melanoma cells, on day zero. The drug was prepared in normal saline and administered by the oral route once daily, on days 1, 7, and 13 following tumor implantation, at doses range from 50 mg/kg to 400 mg/kg. A control group of mice received a saline placebo instead of drug, and another group of tumor bearing mice received the positive control drug cyclophosphamide, at 100 mg/kg, by intraperitoneal injection. On the 21st day after tumor implantation, the mice were anesthesized with Nembutal, and the tumor bearing feet were surgically amputated above the ankle joint. The surgical incision was swabbed with alcohol and sealed with stainless steel wound clips. The tumor bearing feet were individually weighed and the average weight of a normal foot (determined by weighing amputated feet from non-tumor bearing mice of the same sex, age, and body weight) was subtracted to obtain the weight of tumor tissue in the amputated feet. Mice were then observed for deaths until the 90th day after tumor implantation. […]
^1 BDF1 male mice inocluated with 5 × 10^5 B16 melanom
cells subcutaneously in footpad on day zero;
3,6bis(2-diethylaminoethoxy)acridine trihydrochloride administered orally
and Cyclophosphamide intraperitoneally, on days 1, 7, and 13 following
^2 Average tumor weight determined after surgical amputation of tumor
bearing foot on day 21 following tumor implantation.

Columbia SK virus = experiment: Antiviral effects against an interferon-sensitive virus, Columbia SK; assay type: in vivo, Taconic Farms male, white mice; conditions: 400 mg/kg oral, 18 hours before infection; 14 days post injection
Description: Taconic Farms male, white mice, weighing 18-24 g were treated by gavage, 18 hours before infection with a test compound suspended or dissolved in 1.0 ml of 0.2% aqueous agar solution. The mice were then infected by subcutaneous injection with one LD95 of Columbia SK virus in 0.2 ml of distilled water. Groups of infected, untreated mice were used as controls to show the lethality of the infection. The test duration was 14 days.

B-16 melanoma = experiment: Potentiation of cyclophosphamide (Cytoxan) activity against B16 melanoma in mice; assay type: in vivo, BDF1 mice
Description: BDF1 male mice were inoculated subcutaneously with 0.25 ml. of a 10% B-16 melanoma homogenate. Cyclophosphamide was administered intraperitoneally at 80 mg./kg. the second day following the day of tumor implantation. Test compounds were given intraperitoneally on days +6, +8 and +10 relative to tumor implantation. […]
BDF1 male mice inoculated subcutaneously with 0.25 ml. of a 10% tumo
homogenate on day 0. Drugs were administered intraperitoneally;
cyclophosphoamide on day 2, 3,6bis(2-diethylaminoethoxy)acridine
trihydrochloride on days 6, 8 and 10.
^1 Number of survivors over number of mice treated.

[2] = 25 mg/kg i.p. + cyclophosphamide 80 mg/kg
[3] = 25 mg/kg i.p. + cyclophosphamide 80 mg/kg, day 21
[4] = 50 mg/kg i.p. + cyclophosphamide 80 mg/kg
[5] = 50 mg/kg i.p. + cyclophosphamide 80 mg/kg, day 21
[6] = 100 mg/kg i.p. + cyclophosphamide 80 mg/kg
[7] = 100 mg/kg i.p. + cyclophosphamide 80 mg/kg, day 21

## CCN(CC)CCOc1ccc2cc3ccc(OCCN(CC)CC)cc3nc2c1.Cl.Cl.Cl
[1]; Test 1 (CD1 mice), 75 mg/kg oral, ** p <.01
  % Cytotoxicity: 29.5%
[1]; Test 1 (CD1 mice), 150 mg/kg oral, ** p <.01
  % Cytotoxicity: 37.7%
[1]; Test 1 (CD1 mice), 300 mg/kg oral, * p <.05
  % Cytotoxicity: 25.8%
[1]; Test 2 (BDF1 hybrids), 75 mg/kg oral, ** p <.01
  % Cytotoxicity: 44.4%
[1]; Test 2 (BDF1 hybrids), 150 mg/kg oral, ** p <.01
  % Cytotoxicity: 40.9%
[1]; Test 2 (BDF1 hybrids), 300 mg/kg oral, * p <.05
  % Cytotoxicity: 38.2%
[1]; mouse, in vivo
  Stimulation of NK cell activity, in words: active in this test
Normal mouse bone marrow
  Effect on total nucleated cell count of femur marrow, in words: minimal effects on the total nucleated cell count
Circulating interferon
  Induction of circulating interferon, in words: induced the production of high levels of circulating interferon
  Time of peak titers of interferon after drug administration: 16 to 24 h
Circulating interferon; 0 hours
  Serum interferon titer: 10 units/ml
Circulating interferon; 8 hours
  Serum interferon titer: 100 units/ml
Circulating interferon; 16 hours
  Serum interferon titer: 3200 units/ml
Circulating interferon; 24 hours
  Serum interferon titer: 3200 units/ml
Circulating interferon; 32 hours
  Serum interferon titer: 2100 units/ml
Circulating interferon; 48 hours
  Serum interferon titer: 50 units/ml
Circulating interferon; 72 hours
  Interferon titer 72 hours after drug treatment, in words: at normal levels
  Serum interferon titer: 10 units/ml
B16 melanoma; 50 mg/kg oral
  % Increased life-span: 2%
  Median survival time: 54.0 days
  Average % of tumor weight inhibition: 33%
  Average tumor weight: 403 mg
  No. Survivors/No. Treated: 0/12
B16 melanoma; 100 mg/kg oral
  % Increased life-span: 21%
  Median survival time: 64.0 days
  Average tumor weight: 225 mg
  No. Survivors/No. Treated: 2/12
B16 melanoma; 100 mg/kg oral, * significant (≥58%)
  Average % of tumor weight inhibition: 63%
B16 melanoma; 200 mg/kg oral
  Median survival time: > 90.0 days
  Average tumor weight: 122 mg
B16 melanoma; 200 mg/kg oral, * significant (≥58%)
  Average % of tumor weight inhibition: 80%
B16 melanoma; 200 mg/kg oral, ** significant
  No. Survivors/No. Treated: 7/12
B16 melanoma; 200 mg/kg oral, + significant (≥25%)
  % Increased life-span: > 70%
B16 melanoma; 300 mg/kg oral
  Median survival time: > 90.0 days
  Average tumor weight: 63 mg
B16 melanoma; 300 mg/kg oral, * significant (≥58%)
  Average % of tumor weight inhibition: 90%
B16 melanoma; 300 mg/kg oral, ** significant
  No. Survivors/No. Treated: 8/12
B16 melanoma; 300 mg/kg oral, + significant (≥25%)
  % Increased life-span: > 70%
B16 melanoma; 400 mg/kg oral
  Median survival time: 69.0 days
  Average tumor weight: 51 mg
B16 melanoma; 400 mg/kg oral, * significant (≥58%)
  Average % of tumor weight inhibition: 92%
B16 melanoma; 400 mg/kg oral, ** significant
  No. Survivors/No. Treated: 5/12
B16 melanoma; 400 mg/kg oral, + significant (≥25%)
  % Increased life-span: 30%
Columbia SK virus
  Survivors/Total: 10/15
B-16 melanoma; [2]
  ILS (Percent increase in life span over control): 31%
  MST (Median Survival Time): 29.5 days
B-16 melanoma; [3]
  Average tumor weight: 2029 mg
  Number of survivors over number of mice treated: 8/8
B-16 melanoma; 25 mg/kg i.p. + cyclophosphamide 80 mg/kg, day 26
  Number of survivors over number of mice treated: 6/8
B-16 melanoma; 25 mg/kg i.p. + cyclophosphamide 80 mg/kg, day 26, p <0.05 vs cyclophosphamide alone and vs either drug alone
  Average tumor weight: 3125 mg
B-16 melanoma; 25 mg/kg i.p. alone
  ILS (Percent increase in life span over control): 27%
  MST (Median Survival Time): 28.5 days
B-16 melanoma; 25 mg/kg i.p. alone, day 21
  Average tumor weight: 2625 mg
  Number of survivors over number of mice treated: 7/8
B-16 melanoma; 25 mg/kg i.p. alone, day 26
  Number of survivors over number of mice treated: 5/8
B-16 melanoma; 25 mg/kg i.p. alone, day 26, p <0.05 vs untreated
  Average tumor weight: 6303 mg
B-16 melanoma; [4]
  ILS (Percent increase in life span over control): 27%
  MST (Median Survival Time): 28.5 days
B-16 melanoma; [5]
  Average tumor weight: 2041 mg
  Number of survivors over number of mice treated: 8/8
B-16 melanoma; 50 mg/kg i.p. + cyclophosphamide 80 mg/kg, day 26
  Number of survivors over number of mice treated: 7/8
B-16 melanoma; 50 mg/kg i.p. + cyclophosphamide 80 mg/kg, day 26, p <0.05 vs cyclophosphamide alone
  Average tumor weight: 4258 mg
B-16 melanoma; 50 mg/kg i.p. alone
  ILS (Percent increase in life span over control): 18%
  MST (Median Survival Time): 26.5 days
B-16 melanoma; 50 mg/kg i.p. alone, day 21
  Number of survivors over number of mice treated: 7/8
B-16 melanoma; 50 mg/kg i.p. alone, day 21, p <0.05 vs untreated
  Average tumor weight: 2168 mg
B-16 melanoma; 50 mg/kg i.p. alone, day 26
  Number of survivors over number of mice treated: 4/8
B-16 melanoma; 50 mg/kg i.p. alone, day 26, p <0.05 vs untreated
  Average tumor weight: 3111 mg
B-16 melanoma; [6]
  ILS (Percent increase in life span over control): 22%
  MST (Median Survival Time): 27.5 days
B-16 melanoma; [7]
  Average tumor weight: 1532 mg
  Number of survivors over number of mice treated: 8/8
B-16 melanoma; 100 mg/kg i.p. + cyclophosphamide 80 mg/kg, day 26
  Number of survivors over number of mice treated: 5/8
B-16 melanoma; 100 mg/kg i.p. + cyclophosphamide 80 mg/kg, day 26, p <0.05 vs cyclophosphamide alone
  Average tumor weight: 2836 mg
B-16 melanoma; 100 mg/kg i.p. alone
  ILS (Percent increase in life span over control): 22%
  MST (Median Survival Time): 27.5 days
B-16 melanoma; 100 mg/kg i.p. alone, day 21
  Number of survivors over number of mice treated: 7/8
B-16 melanoma; 100 mg/kg i.p. alone, day 21, p <0.05 vs untreated
  Average tumor weight: 1892 mg
B-16 melanoma; 100 mg/kg i.p. alone, day 26
  Number of survivors over number of mice treated: 7/8
B-16 melanoma; 100 mg/kg i.p. alone, day 26, p <0.05 vs untreated
  Average tumor weight: 4127 mg
B-16 melanoma; in combination with Cytoxan, i.p., day +26
  inhibition in local tumor growth: 50%
B-16 melanoma; monotherapy, i.p., day +26
  50% inhibition in local tumor growth, in words: failed to do so
